Here are results for 101 compounds from ChEMBL document CHEMBL3507680, “University of Dundee, Gates Library screen for HepG2 cell viability”.

Structures are written as SMILES.

The nature of the series: Human HepG2 cell viability assay in 384 well format. Details: dose 125 nL, time 70.5 hour; cytotoxicity at 70.5 h: concentration not given beside the values. Conditions: HepG2 cells, read-out: Inhibition. The format is toxicity, cell-based.
`OCc1csc(N2CCCC(COc3cccc(F)c3)C2)n1` (stereo unspecified): the cytotoxicity at 70.5 h was -9.22%. On to `Cn1ncc(N2CCOC(CCNC(=O)N3CCCCC3)C2)cc1=O` (stereo unspecified), for which the cytotoxicity at 70.5 h was -6.9%. Regarding `CN(CCCO)Cc1cc(Cl)ccc1OCC(O)CN1CCCCCC1` (stereo unspecified), the cytotoxicity at 70.5 h is -7.24%. `CCN(C)C(=O)c1ccc(N2CCC(Oc3cccc(F)c3)CC2)nc1`: the cytotoxicity at 70.5 h was -4.75%. The same measure for `Cc1ccc(OC2CCN(C(=O)C(C)Cn3cccn3)CC2)cc1` (stereo unspecified): 0.0943%; for `COc1ccc(-n2nc(C)c(C(C)=O)c2C)cc1C(N)=O`: 2.1%. For the compound `Cc1cn(Cc2nc(CC(C)C)nn2-c2ccccn2)c(=O)[nH]c1=O`, the cytotoxicity at 70.5 h was -1.31%. Regarding `O=C(Nc1ccc(F)cc1)C1CNCCN1C(=O)CCc1cccnc1` (stereo unspecified), the cytotoxicity at 70.5 h is -5.37%. With `Cn1ccnc1C1CCN(CCN2CCOCC2)CC1`, the cytotoxicity at 70.5 h was -8.74%.

Regarding `O=C(N1CCOCC(O)C1)C1(c2ccc(Cl)cc2)CCC1` (stereo unspecified), the cytotoxicity at 70.5 h came out at 21.7%.

With `CCC(C)N(Cc1cccnc1)C(=O)CCSC` (stereo unspecified), the cytotoxicity at 70.5 h is -8.8%. As to `COC(=O)[C@@H](NC(=O)c1coc(COc2cccc(F)c2F)n1)C(C)C`, the cytotoxicity at 70.5 h is -11.7%. `CN(Cc1ccoc1)C(=O)C1CCN(C(=O)C2CCCC2)CC1`: the cytotoxicity at 70.5 h amounted to 27.9%. On to `CC(C)=CCCC1(C)CCC(=O)N(CCc2nc(N)cc(O)n2)C1` (stereo unspecified), for which the cytotoxicity at 70.5 h was -6.54%.

On to `COc1ccc(C(=O)N2CCC3(CCC(=O)N(C(C)C)C3)CC2)cc1C`, for which the cytotoxicity at 70.5 h is -6.63%. As for `NC1CCN(C(=O)c2cnc(Cc3c(Cl)cccc3Cl)nc2O)C1` (stereo unspecified), the cytotoxicity at 70.5 h amounted to 13.3%. Turning to `CC(=O)c1c(C)nn(CC(=O)N2Cc3cnc(CC(C)C)nc3C2)c1C`, the cytotoxicity at 70.5 h is -8.3%.

On to `O=C1CCCc2cc(S(=O)(=O)NCc3ccccn3)ccc2N1`, for which the cytotoxicity at 70.5 h is -11%. `CCCn1ncc(C(=O)NC2CCN(CC3CCCO3)CC2)c1C` (stereo unspecified): the cytotoxicity at 70.5 h stood at 25.6%.

Turning to `CNc1cc(-c2cccc(CN)c2)c2cc[nH]c2n1`, the cytotoxicity at 70.5 h was -13.9%. `CCCc1cnc(C)nc1N1CCC(Cn2cc(CO)nn2)CC1`: the cytotoxicity at 70.5 h was -3.5%. The same measure for `O=C(NCc1ccccn1)C1CN(c2nc3ccccc3s2)CCN1` (stereo unspecified): -8.77%; for `COc1coc(CN2CCCC(CCc3c(F)cccc3F)C2)cc1=O` (stereo unspecified): -2.32%.

In the case of `COc1ccc(Oc2nccc3occc23)cc1CN1CCCC1`, the cytotoxicity at 70.5 h is -6.39%.

On to `Cc1cc2nc(C(C)C)cc(N3CCSCC3)n2n1`, for which the cytotoxicity at 70.5 h came to 16.2%. In the case of `COc1cccc(NC(=O)CN2CCN(S(C)(=O)=O)CC2)c1`, the cytotoxicity at 70.5 h is -8.85%. For `CC(C)CN1CCc2[nH]cnc2C12CCN(C(=O)c1cncn1C)CC2`, the cytotoxicity at 70.5 h is -5.88%. `N#Cc1cccc(N2CCC3(CCC(=O)N(CCCO)C3)CC2)n1`: the cytotoxicity at 70.5 h is -9.82%. Consider `CC(C)NC(=O)[C@@H]1C[C@@H](N)CN1C(=O)c1cc2c([nH]c1=O)CCCC2`, for which the cytotoxicity at 70.5 h is -6.99%.

For `CC(C)N1CCC[C@H]1C(=O)NCC1CCN(c2cnn(C)c(=O)c2)CC1`, the cytotoxicity at 70.5 h was -8.1%.

For `CCOC(=O)c1c(NC(=O)C2CCN(C(C)=O)CC2)sc(C)c1CC`, the cytotoxicity at 70.5 h was -6.22%.

`Cc1ccc2nc(C)cc(C(=O)NC(C)c3nnn[nH]3)c2c1` (stereo unspecified): the cytotoxicity at 70.5 h is -0.653%. The same measure for `CCn1nc(C)c(NC(=O)CN(C)C(C)c2ccon2)c1C` (stereo unspecified): 3.79%; for `CN1CCN(Cc2ccc(-c3ccc4[nH]ccc4c3)nc2)CC1`: -15.3%; for `Cc1noc(C)c1CN(C)C(=O)c1n[nH]c(N)c1-c1ccccc1`: -5.4%. Consider `Cc1cnccc1-c1cc(NCCO)nc2[nH]ccc12`, for which the cytotoxicity at 70.5 h was found to be 14.2%.

For the compound `CCNc1c(NC(=O)NC(C)C)c(=O)oc2ccccc12`, the cytotoxicity at 70.5 h is -8.94%. `Cc1c[nH]c(CN(C)C(=O)c2ccc(CSc3nnc[nH]3)o2)n1`: the cytotoxicity at 70.5 h was -1.05%. For the compound `CNS(=O)(=O)c1cc(C)c2[nH]c(=O)cc(C)c2c1`, the cytotoxicity at 70.5 h was -16.4%. Consider `Cc1ccc(CCN[C@@H]2c3ccccc3C3(CCNCC3)[C@H]2O)s1`, for which the cytotoxicity at 70.5 h is -2.07%. The same measure for `CN(C)C(=O)c1ccc2c(c1)N(C)C(CC(=O)NCc1ncc[nH]1)CO2` (stereo unspecified): -5.15%; for `O=C(NCc1ccco1)c1ccc(N2CCOCC2)cc1`: 0.191%.

`Cc1ccc2[nH]c(C(=O)NCCCn3ccnn3)c(C)c2c1`: the cytotoxicity at 70.5 h came out at 22.6%. With `COCCN(Cc1cnn(C)c1)c1nc(C)nc2sccc12`, the cytotoxicity at 70.5 h amounted to 4.75%. Consider `Cc1ccc(CS(=O)(=O)NCc2ccco2)cc1`, for which the cytotoxicity at 70.5 h is -4.19%. As to `O=S(=O)(Cc1ccc(F)cc1)NCc1ccco1`, the cytotoxicity at 70.5 h was -2.47%. With `Cc1cc(=O)[nH]c(=O)n1-c1ccccc1Br`, the cytotoxicity at 70.5 h is -2.81%. As for `Cn1c(N2CCOCC2)nc2cc(C(=O)N[C@@H]3CC[C@@H](N)C3)ccc21`, the cytotoxicity at 70.5 h is -5.03%. Regarding `COc1ccc([C@@H]2C[C@H](NC(C)=O)C[C@H](Cc3ccccc3)O2)cn1`, the cytotoxicity at 70.5 h is -6.79%. Turning to `CC(=O)Nc1ccc(Cl)c(C(=O)N(C)C(C)c2ccncn2)c1` (stereo unspecified), the cytotoxicity at 70.5 h was -0.237%.

As for `CC(=O)NCCNc1nc(C2CCCC2)nc2c1cnn2C`, the cytotoxicity at 70.5 h is -5.79%. Regarding `O=C(NCCN1CCCCC1)c1cccc(Cl)c1Cl`, the cytotoxicity at 70.5 h was -8.61%. As for `CSCCC(=O)NCc1cc2n(n1)CCN(C(=O)N(C)C)C2`, the cytotoxicity at 70.5 h was -8.07%.

Turning to `O[C@]12CCNC[C@H]1CN(c1nccc3ccccc13)CC2`, the cytotoxicity at 70.5 h worked out at 22.6%. Regarding `O=C(c1scc2c1OCCO2)N1CCOC(Cc2ccc(F)cc2)C1` (stereo unspecified), the cytotoxicity at 70.5 h was -0.136%. The same measure for `O=C(c1ccc(Br)o1)N1CCN(Cc2ccc(F)cc2)CC1`: 7.95%.

With `CC(C)N1CCCn2nc(C(=O)NCCc3c[nH]cn3)cc2C1`, the cytotoxicity at 70.5 h is 19.8%. Turning to `CN1CCCN(CC(=O)N2CCc3[nH]c(-c4ccccc4)nc3C2)CC1`, the cytotoxicity at 70.5 h was -1.3%.

Consider `O=S(=O)(c1c(N2CCCC2)ccc2nonc12)N1CCCC1`, for which the cytotoxicity at 70.5 h was -1.28%.

Take `Cc1nc(NC(=O)C(C)N2CCN(c3ccccc3F)CC2)sc1C` (stereo unspecified): the cytotoxicity at 70.5 h was -2.47%.

As to `CCOC(=O)CC1CCCCN1C(=O)c1cc(C)oc1C` (stereo unspecified), the cytotoxicity at 70.5 h amounted to 3.76%.

As to `COCc1cc(CNC(=O)c2cccc3c2OCC3)n[nH]1`, the cytotoxicity at 70.5 h is -5.24%. For the compound `Cc1cccc2sc(NC(=O)CN3CCC(C)CC3)nc12`, the cytotoxicity at 70.5 h was -7.07%. With `Cc1cc(-c2nn3c(C)nnc3s2)n[nH]1` the figure was 20%. Regarding `Cc1cc(C(=O)NCCC(C)C)ccc1NS(C)(=O)=O`, the cytotoxicity at 70.5 h was -11%. `Cc1ccccc1N1CCCN(C(=O)c2nn(C)cc2Cl)CC1`: the cytotoxicity at 70.5 h was found to be 27.7%. In the case of `CC(=O)Nc1ncc(S(=O)(=O)N2CCCC(C)C2)s1` (stereo unspecified), the cytotoxicity at 70.5 h was -3.6%.

For `CC(=O)Nc1ncc(S(=O)(=O)N2CCOCC2)s1`, the cytotoxicity at 70.5 h is -1.73%. As for `Cc1cc(C)n(CCCN(C)c2cc(N(C)C)ncn2)n1`, the cytotoxicity at 70.5 h was -7.08%. The same measure for `COCC(Nc1ncnc2sc(C)c(C)c12)c1ccnn1C` (stereo unspecified): -4.15%; for `Cc1cccc(OCCN2CCN(Cc3noc(C)n3)CC2)c1`: -2.75%; for `Cc1nc(CN2CCN(CCOc3ccc(C(C)C)c(C)c3)CC2)no1`: 8.91%. Take `Cc1nc(CC(=O)N2CCCC(n3ccnc3C(C)C)C2)cs1` (stereo unspecified): the cytotoxicity at 70.5 h was -6.07%. With `CC(C)c1nccn1C1CCCN(C(=O)CCc2cnn(C)c2)C1` (stereo unspecified) the figure was -10.7%; with `CC(C)c1nccn1C1CCCN(C(=O)CCNS(C)(=O)=O)C1` (stereo unspecified), -6.32%.

In the case of `Cc1nn(C)c(Cl)c1C1CCCN1Cc1noc(C2CC2)n1` (stereo unspecified), the cytotoxicity at 70.5 h was -9.55%. With `O=C(NCc1ccco1)N1CCN(Cc2ccc3c(c2)CCO3)CC1`, the cytotoxicity at 70.5 h is -6.39%. For the compound `Cc1nccc(-c2cccc(NCC(=O)N3CCOC(C)C3)c2)n1` (stereo unspecified), the cytotoxicity at 70.5 h was -3.45%. Take `Cc1nccc(-c2cccc(NCC(=O)N3CCNC(=O)C3)c2)n1`: the cytotoxicity at 70.5 h was -5.62%. Take `Cc1noc(NC(=O)c2ccccc2)n1`: the cytotoxicity at 70.5 h is -5.17%. For `Cc1nccc(-c2cccc(NCC(=O)NCC(=O)N3CCCC3)c2)n1`, the cytotoxicity at 70.5 h was -3.17%.

Regarding `Cc1ncsc1C(=O)NCCNc1ncccn1`, the cytotoxicity at 70.5 h turned out to be 13.7%. The same measure for `Cc1noc(C)c1CN(C)C(=O)c1ccc(C(N)=O)nc1`: -5.9%. Consider `COc1ccnc(N2CCN(C(=O)c3cccc(C#N)c3)CC2)n1`, for which the cytotoxicity at 70.5 h is -7.44%. With `CCc1nnc2n1CCN(C(=O)c1cc(C)n(-c3ccccc3)c1C)C2` the figure was -4.27%; with `COc1ccc(CN(C)C(=O)NCc2c(C)cc(C)nc2OC)cc1`, -5.78%. Regarding `Cc1nn(C)c(N(C)C)c1CNCc1ccc2c(c1)OCO2`, the cytotoxicity at 70.5 h came out at 29.5%. On to `Cc1ccccc1C(C)NC(=O)CSCC#N` (stereo unspecified), for which the cytotoxicity at 70.5 h turned out to be 12.8%. Turning to `CCc1nc(C(=O)N2CCN(CC)CC2)nn1-c1ccccc1Cl`, the cytotoxicity at 70.5 h came out at 11.3%. Consider `CCc1nc(C(=O)N2CCN(C)CC2)nn1-c1ccccc1Cl`, for which the cytotoxicity at 70.5 h was 16.1%.

Take `CCc1noc(C)c1C(=O)N1CCCCC1Cn1cc(C)cn1` (stereo unspecified): the cytotoxicity at 70.5 h is 46.7%. As for `c1ccc(-n2cc(CNCC3CCCN3c3cccnn3)cn2)cc1` (stereo unspecified), the cytotoxicity at 70.5 h is -5.35%. As for `Cc1cnn(CC2CCCN2C(=O)c2c(C)noc2C)c1` (stereo unspecified), the cytotoxicity at 70.5 h was -11%. Turning to `CC(C)c1nn(C)c(N(C)C)c1CNCc1ccc2c(c1)OCCO2`, the cytotoxicity at 70.5 h was -5.83%.

As for `O=C(CCc1ccsc1)Nc1cccnc1N1CCCC1`, the cytotoxicity at 70.5 h is -6.9%. On to `CN(Cc1ccco1)C(=O)Nc1cccnc1N1CCCC1`, for which the cytotoxicity at 70.5 h is -3.81%. Turning to `O=C(CCNC(=O)C1CCCC1)NCc1ccccc1Cn1ccnc1`, the cytotoxicity at 70.5 h was -8.37%. With `Cc1ncsc1C(=O)NC1CCN(CCC(=O)Nc2ccccc2)CC1`, the cytotoxicity at 70.5 h was -1.32%.

With `OCCn1nccc1C1CCN(CCOc2ccc(Cl)cc2)CC1`, the cytotoxicity at 70.5 h was -1.15%. Take `CCOc1ccc2ccccc2c1CNCC1CCNCC1`: the cytotoxicity at 70.5 h came out at 9.2%. As for `Cc1ccc(OCCCSC2=NCCN2)cc1`, the cytotoxicity at 70.5 h was -3.22%.
